Measured values from ChEMBL document CHEMBL1201862, “PubChem BioAssay data set” (2004).
Calls of active or inactive are those of the source.

What was measured:
[1] = target: T1, Tyrosine-protein kinase JAK3 (Homo sapiens, UniProt P52333); format: functional
T1 sequence (P52333 whole entry): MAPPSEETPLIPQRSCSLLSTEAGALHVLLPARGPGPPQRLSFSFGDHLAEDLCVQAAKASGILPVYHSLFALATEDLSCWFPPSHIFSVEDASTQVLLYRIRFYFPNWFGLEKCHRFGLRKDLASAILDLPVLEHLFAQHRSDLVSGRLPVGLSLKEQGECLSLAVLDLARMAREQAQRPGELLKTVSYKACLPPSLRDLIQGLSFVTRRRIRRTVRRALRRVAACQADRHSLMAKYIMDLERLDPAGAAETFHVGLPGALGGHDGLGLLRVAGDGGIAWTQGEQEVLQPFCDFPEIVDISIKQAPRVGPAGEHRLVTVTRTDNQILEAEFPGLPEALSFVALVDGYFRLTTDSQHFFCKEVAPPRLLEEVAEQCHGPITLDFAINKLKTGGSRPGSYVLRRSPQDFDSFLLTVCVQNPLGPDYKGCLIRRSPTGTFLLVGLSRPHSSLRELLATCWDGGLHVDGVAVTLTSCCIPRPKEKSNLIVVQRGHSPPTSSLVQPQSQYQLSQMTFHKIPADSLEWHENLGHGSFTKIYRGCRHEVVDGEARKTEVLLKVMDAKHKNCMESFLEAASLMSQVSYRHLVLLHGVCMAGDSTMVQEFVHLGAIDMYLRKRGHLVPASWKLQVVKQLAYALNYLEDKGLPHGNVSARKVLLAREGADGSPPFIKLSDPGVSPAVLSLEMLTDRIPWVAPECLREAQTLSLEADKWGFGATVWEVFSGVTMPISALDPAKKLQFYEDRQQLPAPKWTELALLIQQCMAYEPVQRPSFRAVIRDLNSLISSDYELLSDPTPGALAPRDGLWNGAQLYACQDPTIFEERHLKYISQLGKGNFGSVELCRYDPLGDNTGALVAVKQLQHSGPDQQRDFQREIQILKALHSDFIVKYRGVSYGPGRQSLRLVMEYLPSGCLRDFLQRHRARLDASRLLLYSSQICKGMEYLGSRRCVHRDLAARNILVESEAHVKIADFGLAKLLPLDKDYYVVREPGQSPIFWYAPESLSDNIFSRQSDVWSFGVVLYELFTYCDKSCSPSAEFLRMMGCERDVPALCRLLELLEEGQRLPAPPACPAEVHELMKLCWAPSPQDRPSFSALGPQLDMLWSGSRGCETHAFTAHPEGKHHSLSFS

[2] = target: T2, cAMP-dependent protein kinase catalytic subunit PRKX (Homo sapiens, UniProt P51817); format: functional
T2 sequence (P51817 whole entry): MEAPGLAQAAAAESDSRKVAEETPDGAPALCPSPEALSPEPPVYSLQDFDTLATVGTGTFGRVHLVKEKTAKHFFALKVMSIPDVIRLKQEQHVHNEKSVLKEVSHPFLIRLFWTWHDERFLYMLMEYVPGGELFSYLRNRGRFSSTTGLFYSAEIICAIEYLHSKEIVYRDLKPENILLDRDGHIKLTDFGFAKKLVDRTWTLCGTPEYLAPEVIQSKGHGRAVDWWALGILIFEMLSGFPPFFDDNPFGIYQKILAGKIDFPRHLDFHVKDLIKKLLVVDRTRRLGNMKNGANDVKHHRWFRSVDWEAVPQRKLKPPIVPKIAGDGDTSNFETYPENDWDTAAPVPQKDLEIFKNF

[3] = target: Cyclin-dependent kinase 8 (Homo sapiens, UniProt P49336); assay: Navigating the Kinome. Panel member name: CDK8; format: functional
[4] = target: Fibroblast growth factor receptor 1 (Homo sapiens, UniProt P11362); format: functional
[5] = target: Tyrosine-protein kinase receptor TYRO3 (Homo sapiens, UniProt Q06418); format: functional;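 note: TYRO3 value obtained as one member of a kinome-wide profiling panel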
[6] = target: Glycogen synthase kinase-3 beta (Homo sapiens, UniProt P49841); format: functional;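 note: value comes from a broad kinome profiling panel, with GSK3B as the panel member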
[7] = target: Cyclin-dependent kinase 7 (Homo sapiens, UniProt P50613); format: functional;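 note: value comes from a kinome-wide kinase profiling panel in which CDK7 is one member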
[8] = target: Platelet-derived growth factor receptor alpha (Homo sapiens, UniProt P16234); assay: Navigating the Kinome. Panel member name: PDGFRA; format: functional
[9] = target: BDNF/NT-3 growth factors receptor (Homo sapiens, UniProt Q16620); format: functional;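 note: NTRK2 measured as one member of a broad kinome-wide kinase profiling panel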
[10] = target: Cyclin-dependent kinase 9 (Homo sapiens, UniProt P50750); format: functional;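 note: value from the CDK9 entry of a kinome-spanning kinase panel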
[11] = target: Casein kinase I isoform alpha (Homo sapiens, UniProt P48729); format: functional
[12] = target: Hepatocyte growth factor receptor (Homo sapiens, UniProt P08581); format: functional;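 note: kinase panel profiling across the kinome, with MET as the panel member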
[13] = target: G protein-coupled receptor kinase 5 (Homo sapiens, UniProt P34947); assay: Navigating the Kinome. Panel member name: GPRK5; format: functional
[14] = target: Calcium/calmodulin-dependent protein kinase type II subunit alpha (Homo sapiens, UniProt Q9UQM7); assay: Navigating the Kinome. Panel member name: CAMK2A; format: functional
[15] = target: Serine/threonine-protein kinase pim-1 (Homo sapiens, UniProt P11309); format: functional
[16] = target: T3, Mitochondrial peptide methionine sulfoxide reductase (Bos taurus, UniProt P54149); assay: Absorbance-based biochemical high throughput dose response assay for activators of Methionine sulfoxide reductase A (MsrA).; format: functional
T3 sequence (P54149 whole entry): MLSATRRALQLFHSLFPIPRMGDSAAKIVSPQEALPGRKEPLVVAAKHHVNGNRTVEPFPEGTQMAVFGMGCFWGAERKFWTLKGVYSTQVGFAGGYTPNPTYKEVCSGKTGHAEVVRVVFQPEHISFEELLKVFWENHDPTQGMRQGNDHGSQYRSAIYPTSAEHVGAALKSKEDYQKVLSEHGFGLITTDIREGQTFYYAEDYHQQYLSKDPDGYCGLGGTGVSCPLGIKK

Caspase-6 = target: T4, Caspase-6 (Homo sapiens, UniProt P55212); assay: inhibition of CASP6 peptide cleavage – biochemical, VEID-R110 fluorescence, cherry-pick, dose response (AID 720632)
T4 sequence (P55212 whole entry): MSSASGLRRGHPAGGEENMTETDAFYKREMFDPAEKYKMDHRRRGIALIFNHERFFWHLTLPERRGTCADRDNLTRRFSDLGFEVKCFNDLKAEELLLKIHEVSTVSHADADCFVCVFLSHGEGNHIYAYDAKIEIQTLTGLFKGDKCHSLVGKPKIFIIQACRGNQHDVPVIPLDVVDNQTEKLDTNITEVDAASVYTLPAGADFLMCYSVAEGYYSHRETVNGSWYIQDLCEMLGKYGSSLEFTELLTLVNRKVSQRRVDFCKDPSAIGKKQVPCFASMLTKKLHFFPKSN

Calcium/calmodulin-dependent protein kinase type II subunit alpha, sequence (Q9UQM7 whole entry): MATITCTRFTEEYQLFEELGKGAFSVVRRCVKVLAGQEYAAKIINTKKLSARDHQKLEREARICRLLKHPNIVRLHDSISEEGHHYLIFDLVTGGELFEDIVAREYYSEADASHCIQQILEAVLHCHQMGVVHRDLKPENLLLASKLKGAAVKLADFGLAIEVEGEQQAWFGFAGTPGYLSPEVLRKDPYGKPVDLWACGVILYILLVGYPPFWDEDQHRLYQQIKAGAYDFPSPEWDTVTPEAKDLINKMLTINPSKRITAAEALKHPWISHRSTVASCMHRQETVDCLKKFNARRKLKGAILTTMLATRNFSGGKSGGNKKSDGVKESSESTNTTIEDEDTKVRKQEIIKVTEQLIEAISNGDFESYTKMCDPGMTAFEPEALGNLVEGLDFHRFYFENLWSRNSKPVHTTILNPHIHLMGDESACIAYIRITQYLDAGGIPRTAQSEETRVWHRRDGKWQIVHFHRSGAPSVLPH
Casein kinase I isoform alpha, sequence (P48729 whole entry, canonical isoform): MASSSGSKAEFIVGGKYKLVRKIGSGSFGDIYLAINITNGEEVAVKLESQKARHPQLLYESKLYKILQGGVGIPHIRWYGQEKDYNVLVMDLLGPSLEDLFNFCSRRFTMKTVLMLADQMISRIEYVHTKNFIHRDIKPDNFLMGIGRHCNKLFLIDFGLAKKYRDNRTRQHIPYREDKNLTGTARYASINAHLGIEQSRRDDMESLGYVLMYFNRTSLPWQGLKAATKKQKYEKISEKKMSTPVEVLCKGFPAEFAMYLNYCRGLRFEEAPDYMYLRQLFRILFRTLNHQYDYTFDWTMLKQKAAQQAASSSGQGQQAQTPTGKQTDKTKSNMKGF
Glycogen synthase kinase-3 beta, sequence (P49841 whole entry): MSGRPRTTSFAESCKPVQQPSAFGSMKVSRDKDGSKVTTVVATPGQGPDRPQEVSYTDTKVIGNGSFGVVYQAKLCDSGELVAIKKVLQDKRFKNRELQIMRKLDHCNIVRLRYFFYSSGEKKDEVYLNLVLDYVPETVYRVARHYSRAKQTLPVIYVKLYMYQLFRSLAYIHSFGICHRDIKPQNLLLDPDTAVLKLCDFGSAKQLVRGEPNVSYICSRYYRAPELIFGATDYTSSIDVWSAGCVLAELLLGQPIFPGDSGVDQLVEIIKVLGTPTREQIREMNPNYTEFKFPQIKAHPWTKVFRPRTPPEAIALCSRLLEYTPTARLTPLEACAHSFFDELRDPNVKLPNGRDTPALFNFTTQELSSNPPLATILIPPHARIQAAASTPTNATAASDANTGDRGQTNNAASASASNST
Cyclin-dependent kinase 8, sequence (P49336 whole entry): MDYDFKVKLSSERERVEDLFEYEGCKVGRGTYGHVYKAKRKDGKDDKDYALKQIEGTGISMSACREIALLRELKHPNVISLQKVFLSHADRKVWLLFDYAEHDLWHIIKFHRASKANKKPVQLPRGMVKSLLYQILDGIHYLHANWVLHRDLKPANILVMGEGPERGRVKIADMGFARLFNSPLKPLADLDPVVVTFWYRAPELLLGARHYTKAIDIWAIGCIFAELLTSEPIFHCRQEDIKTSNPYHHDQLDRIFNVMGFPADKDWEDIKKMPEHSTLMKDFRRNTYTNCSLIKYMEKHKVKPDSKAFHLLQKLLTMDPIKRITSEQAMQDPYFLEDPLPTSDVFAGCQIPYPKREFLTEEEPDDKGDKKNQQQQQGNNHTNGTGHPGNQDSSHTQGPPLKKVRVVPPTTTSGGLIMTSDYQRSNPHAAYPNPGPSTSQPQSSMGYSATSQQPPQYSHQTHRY
Platelet-derived growth factor receptor alpha, sequence (P16234 whole entry): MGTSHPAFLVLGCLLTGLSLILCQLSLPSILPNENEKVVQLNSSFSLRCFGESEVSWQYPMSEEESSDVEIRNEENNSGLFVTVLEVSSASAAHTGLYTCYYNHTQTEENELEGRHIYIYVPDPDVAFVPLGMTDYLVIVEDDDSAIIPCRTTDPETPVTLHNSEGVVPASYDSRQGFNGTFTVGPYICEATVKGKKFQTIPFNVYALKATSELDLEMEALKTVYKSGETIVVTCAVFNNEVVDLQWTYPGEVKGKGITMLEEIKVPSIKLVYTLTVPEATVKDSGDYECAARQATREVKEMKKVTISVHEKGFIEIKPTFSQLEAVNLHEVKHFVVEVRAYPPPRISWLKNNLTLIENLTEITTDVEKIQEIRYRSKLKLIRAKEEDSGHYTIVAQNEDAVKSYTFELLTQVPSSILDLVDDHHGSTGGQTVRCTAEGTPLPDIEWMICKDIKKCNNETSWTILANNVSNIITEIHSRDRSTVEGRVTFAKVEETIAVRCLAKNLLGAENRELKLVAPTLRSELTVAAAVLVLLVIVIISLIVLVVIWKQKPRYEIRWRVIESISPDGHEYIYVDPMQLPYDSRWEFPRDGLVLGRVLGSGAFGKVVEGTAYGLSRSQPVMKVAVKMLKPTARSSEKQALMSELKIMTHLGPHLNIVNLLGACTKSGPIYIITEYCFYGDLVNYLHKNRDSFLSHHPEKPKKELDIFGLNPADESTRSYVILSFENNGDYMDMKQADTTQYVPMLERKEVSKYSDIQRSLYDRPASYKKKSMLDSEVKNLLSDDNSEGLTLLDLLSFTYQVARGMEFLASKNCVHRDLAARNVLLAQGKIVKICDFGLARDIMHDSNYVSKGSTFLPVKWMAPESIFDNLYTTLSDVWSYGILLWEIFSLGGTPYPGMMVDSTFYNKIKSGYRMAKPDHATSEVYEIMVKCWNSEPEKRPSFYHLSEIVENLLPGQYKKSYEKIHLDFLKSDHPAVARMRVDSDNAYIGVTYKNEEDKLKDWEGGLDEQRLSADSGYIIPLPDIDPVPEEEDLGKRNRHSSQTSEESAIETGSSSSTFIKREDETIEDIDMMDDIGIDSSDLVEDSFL
Cyclin-dependent kinase 7, sequence (P50613 whole entry): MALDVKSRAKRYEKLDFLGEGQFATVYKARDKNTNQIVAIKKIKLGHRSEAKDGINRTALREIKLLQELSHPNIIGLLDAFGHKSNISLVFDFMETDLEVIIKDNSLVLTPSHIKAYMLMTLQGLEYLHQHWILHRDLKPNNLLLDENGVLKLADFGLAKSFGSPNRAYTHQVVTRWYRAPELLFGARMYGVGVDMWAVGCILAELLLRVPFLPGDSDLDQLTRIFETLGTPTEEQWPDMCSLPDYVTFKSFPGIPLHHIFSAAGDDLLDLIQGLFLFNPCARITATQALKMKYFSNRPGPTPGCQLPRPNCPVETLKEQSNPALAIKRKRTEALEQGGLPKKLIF
Cyclin-dependent kinase 9, sequence (P50750 whole entry, canonical isoform): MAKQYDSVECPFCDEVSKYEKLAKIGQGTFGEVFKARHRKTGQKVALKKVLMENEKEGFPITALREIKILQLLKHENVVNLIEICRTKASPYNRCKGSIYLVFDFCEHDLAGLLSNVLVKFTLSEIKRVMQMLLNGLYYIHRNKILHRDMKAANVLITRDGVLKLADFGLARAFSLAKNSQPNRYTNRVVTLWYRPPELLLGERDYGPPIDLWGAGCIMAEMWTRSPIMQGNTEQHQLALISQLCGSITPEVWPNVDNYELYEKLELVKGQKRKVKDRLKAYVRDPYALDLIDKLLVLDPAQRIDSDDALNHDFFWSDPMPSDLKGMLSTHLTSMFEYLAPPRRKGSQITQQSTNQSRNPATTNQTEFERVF
BDNF/NT-3 growth factors receptor, sequence (Q16620 whole entry): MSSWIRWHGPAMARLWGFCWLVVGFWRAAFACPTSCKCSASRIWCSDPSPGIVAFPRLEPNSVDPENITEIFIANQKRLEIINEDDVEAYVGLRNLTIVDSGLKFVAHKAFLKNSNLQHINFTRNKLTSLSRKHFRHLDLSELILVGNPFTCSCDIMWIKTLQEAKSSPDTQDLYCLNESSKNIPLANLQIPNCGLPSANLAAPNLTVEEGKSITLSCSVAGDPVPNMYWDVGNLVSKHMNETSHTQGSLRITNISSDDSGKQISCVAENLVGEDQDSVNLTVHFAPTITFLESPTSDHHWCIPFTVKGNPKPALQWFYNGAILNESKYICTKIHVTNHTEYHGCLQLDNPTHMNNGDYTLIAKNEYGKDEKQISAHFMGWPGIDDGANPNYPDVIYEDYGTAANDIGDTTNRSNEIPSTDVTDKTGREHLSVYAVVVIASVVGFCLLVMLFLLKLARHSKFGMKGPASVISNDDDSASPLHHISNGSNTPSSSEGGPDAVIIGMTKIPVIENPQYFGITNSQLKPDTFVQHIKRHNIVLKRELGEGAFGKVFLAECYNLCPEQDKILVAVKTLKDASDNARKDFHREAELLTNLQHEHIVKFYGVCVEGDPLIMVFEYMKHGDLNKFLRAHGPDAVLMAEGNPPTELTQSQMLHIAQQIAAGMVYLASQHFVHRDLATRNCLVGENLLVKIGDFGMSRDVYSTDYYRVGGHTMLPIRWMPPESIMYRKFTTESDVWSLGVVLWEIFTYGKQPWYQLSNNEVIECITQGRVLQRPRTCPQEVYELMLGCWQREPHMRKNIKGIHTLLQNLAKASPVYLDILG
Serine/threonine-protein kinase pim-1, sequence (P11309 whole entry): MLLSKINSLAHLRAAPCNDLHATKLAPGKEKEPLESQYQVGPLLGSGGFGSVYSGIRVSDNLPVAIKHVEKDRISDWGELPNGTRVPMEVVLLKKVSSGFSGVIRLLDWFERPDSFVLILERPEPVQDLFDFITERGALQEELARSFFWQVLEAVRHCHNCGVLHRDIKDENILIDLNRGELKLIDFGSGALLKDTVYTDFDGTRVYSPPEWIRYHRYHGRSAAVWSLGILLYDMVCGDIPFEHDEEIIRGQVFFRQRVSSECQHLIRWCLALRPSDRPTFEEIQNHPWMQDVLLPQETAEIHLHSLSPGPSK

Question: For `OC1CCC(Nc2nc(Cl)cc(-c3c[nH]c4ncccc34)n2)CC1` (configuration not stated), which Ki [1] is on record?
Answer: 50.1 nM (active)

Question: And the pKi [1]?
Answer: 7.3

Question: And the Ki [2]?
Answer: 63.1 nM (active)

Question: And the pKi [2]?
Answer: 7.2

Question: What about the Ki [3] of the same compound?
Answer: 0.794 nM (active)

Question: And the pKi [3]?
Answer: 9.1

Question: And the Ki [4]?
Answer: 2000 nM (active)

Question: What about the pKi [4] of the same compound?
Answer: 5.7

Question: And the Ki [5]?
Answer: > 2000 nM (inactive)

Question: What about the Ki [6] of the same compound?
Answer: 50.1 nM (active)

Question: What about the pKi [6] of the same compound?
Answer: 7.3

Question: And the Ki [7]?
Answer: 251 nM (active)

Question: And the pKi [7]?
Answer: 6.6

Question: And the Ki [8]?
Answer: 1000 nM (active)

Question: And the pKi [8]?
Answer: 6

Question: What about the Ki [9] of the same compound?
Answer: 398 nM (active)

Question: And the pKi [9]?
Answer: 6.4

Question: What about the Ki [10] of the same compound?
Answer: 1.26 nM (active)

Question: And the pKi [10]?
Answer: 8.9

Question: What about the Ki [11] of the same compound?
Answer: 63.1 nM (active)

Question: What about the pKi [11] of the same compound?
Answer: 7.2

Question: And the Ki [12]?
Answer: > 3160 nM (inactive)

Question: And the Ki [13]?
Answer: 1580 nM (active)

Question: And the pKi [13]?
Answer: 5.8

Question: And the Ki [14]?
Answer: 158 nM (active)

Question: And the pKi [14]?
Answer: 6.8

Question: And the Ki [15]?
Answer: 1000 nM (active)

Question: What about the pKi [15] of the same compound?
Answer: 6

Question: For `CCN(CC)CCCC(C)n1c2nc(=O)[nH]c(=O)c-2nc2cc(Cl)ccc21` (configuration not stated), which EC50 [16] is on record?
Answer: 32900 nM (inactive)

Question: And the AC50 (Caspase-6)?
Answer: 305 nM (active)

Question: Which Ki [1] does the source give for `COc1cccc(CNC(=O)c2cnc(-c3ccncc3)nc2)c1` here?
Answer: > 5010 nM (inactive)

Question: And the Ki [2]?
Answer: 2000 nM (active)

Question: What about the Ki [3] of the same compound?
Answer: > 3980 nM (inactive)

Question: And the Ki [4]?
Answer: > 3980 nM (inactive)

Question: And the Ki [5]?
Answer: > 3160 nM (inactive)

Question: And the Ki [6]?
Answer: > 3980 nM (inactive)

Question: And the Ki [7]?
Answer: > 3980 nM (inactive)

Question: And the Ki [8]?
Answer: > 2510 nM (inactive)

Question: What about the Ki [9] of the same compound?
Answer: > 3980 nM (inactive)

Question: What about the Ki [10] of the same compound?
Answer: > 1580 nM (inactive)

Question: What about the Ki [11] of the same compound?
Answer: > 3980 nM (inactive)

Question: What about the Ki [12] of the same compound?
Answer: > 2510 nM (inactive)

Question: And the Ki [13]?
Answer: 3980 nM (active)

Question: What about the Ki [14] of the same compound?
Answer: > 7940 nM (inactive)

Question: What about the Ki [15] of the same compound?
Answer: > 6310 nM (inactive)

Question: With `O=C(COC(=O)c1ccc([N+](=O)[O-])s1)Nc1ccc(F)cc1` as the compound, how does the EC50 [16] read?
Answer: > 104000 nM (inactive)

Question: What about the AC50 (Caspase-6) of the same compound?
Answer: 1960 nM (active)
